Laboratory results as given in the NIST ThermoML archive (doi:10.1021/je800110r).

Details: 313.14 K, Liquid, Vibrating tube method

CCCCCCCCCC [decane]
Details | mass density [kg/m3]
9156 kPa | 722.3
9171 kPa | 722.4
9194 kPa | 722.3
9210 kPa | 722.4
9227 kPa | 722.3
9245 kPa | 722.2
9261 kPa | 722.3
9284 kPa | 722.4
9300 kPa | 722.4
9323 kPa | 722.5
9338 kPa | 722.6
9358 kPa | 722.5
9374 kPa | 722.6
9392 kPa | 722.5
9410 kPa | 722.6
9431 kPa | 722.4
9447 kPa | 722.6
9463 kPa | 722.7
9479 kPa | 722.4
9503 kPa | 722.6
9522 kPa | 722.6
9538 kPa | 722.5
9554 kPa | 722.6
9574 kPa | 722.7
9587 kPa | 722.7
9607 kPa | 722.6
9627 kPa | 722.6
9646 kPa | 722.6
9674 kPa | 722.5
9694 kPa | 722.8
9717 kPa | 722.7
9733 kPa | 722.8
9747 kPa | 722.7
9770 kPa | 722.9
9785 kPa | 722.8
9807 kPa | 722.8
9828 kPa | 722.9
9851 kPa | 722.9
9869 kPa | 722.8
9892 kPa | 722.9
9913 kPa | 722.9
9930 kPa | 723
9945 kPa | 722.9
9970 kPa | 722.9
9985 kPa | 722.9
10007 kPa | 722.8
10022 kPa | 723
10046 kPa | 723
10062 kPa | 723
10088 kPa | 723
10107 kPa | 723
10128 kPa | 723.1
10147 kPa | 723.1
10166 kPa | 723
10182 kPa | 723.1
10199 kPa | 723.1
10221 kPa | 723.1
10234 kPa | 723.2
10262 kPa | 723.3
10278 kPa | 723.1
10295 kPa | 723.2
10317 kPa | 723.1
10340 kPa | 723.2
10361 kPa | 723.2
10381 kPa | 723.2
10400 kPa | 723.3
10421 kPa | 723.3
10437 kPa | 723.4
10454 kPa | 723.3
10483 kPa | 723.4
10497 kPa | 723.3
10520 kPa | 723.3
10540 kPa | 723.4
10567 kPa | 723.5
10593 kPa | 723.4
10616 kPa | 723.5
10634 kPa | 723.5
10655 kPa | 723.6
10673 kPa | 723.6
10694 kPa | 723.6
10718 kPa | 723.6
10739 kPa | 723.6
10757 kPa | 723.6
10781 kPa | 723.5
10805 kPa | 723.6
10821 kPa | 723.7
10843 kPa | 723.6
10861 kPa | 723.7
10876 kPa | 723.6
10895 kPa | 723.7
10916 kPa | 723.7
10935 kPa | 723.7
10960 kPa | 723.6
10988 kPa | 723.7
11007 kPa | 723.8
11027 kPa | 723.8
11049 kPa | 723.8
11070 kPa | 723.9
11096 kPa | 723.8
11115 kPa | 723.9
11141 kPa | 723.9
11164 kPa | 723.9
11184 kPa | 723.9
11210 kPa | 723.9
11236 kPa | 723.9
11260 kPa | 724
11286 kPa | 724
11306 kPa | 724.1
11326 kPa | 724
11344 kPa | 724.1
11361 kPa | 723.9
11385 kPa | 724.2
11406 kPa | 724
11429 kPa | 724
11459 kPa | 724
11480 kPa | 724
11497 kPa | 724.2
11518 kPa | 724.2
11549 kPa | 724.3
11570 kPa | 724.3
11592 kPa | 724.1
11609 kPa | 724.3
11631 kPa | 724.3
11661 kPa | 724.2
11689 kPa | 724.3
11711 kPa | 724.5
11743 kPa | 724.4
11765 kPa | 724.3
11794 kPa | 724.4
11820 kPa | 724.4
11852 kPa | 724.4
11886 kPa | 724.5
11915 kPa | 724.5
11945 kPa | 724.4
11976 kPa | 724.6
12006 kPa | 724.5
12029 kPa | 724.6
